Source: US9249125B2, “Pyrazole derivatives as p38 MAP inhibitors” (RESPIVERT LIMITED, priority 2012, dated 2016)

Experiments:
[1] = tested on: Poly I:C-induced ICAM-1 expression in BEAS2B cells; assay: Poly I:C-induced ICAM-1 expression in BEAS2B cells; assay type: cell-based; conditions: Homo sapiens, BEAS-2B, read-out: Poly IC induced ICAM1 in BEAS2B IC50
Method in brief: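 Cell-based ELISA read at 450 nm minus 655 nm, divided by crystal violet OD595 to normalize for cell number, gave ICAM-1 levels. Readout was taken 18 hr after poly I:C (1 μg/mL, Oligofectamine) transfection of human bronchial BEAS2B cells pretreated 2 hr with test compound.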

GSK3α = GSK3α (Homo sapiens (Human), UniProt P49840); assay: GSK 3α enzyme inhibition (FRET, Z-LYTE); assay type: biochemical
Method in brief: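 Phosphorylation was read as the donor (coumarin) to acceptor (fluorescein) ratio after a 1 hr protease step destroying non-phosphorylated peptide. Before this, compound (4–0.004 μg/mL stocks) sat 2 hr at RT with GSK3α (500 ng/mL stock), followed by 1 hr kinase reaction with 8 μM peptide and 40 μM ATP stocks.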

[2] = tested on: LPS-induced TNFα release in d-U937 cells; assay: LPS-induced TNFα release in d-U937 cells; assay type: cell-based; conditions: Homo sapiens, dU937, relative to 10 μg/mL BIRB796, read-out: LPS Induced Release of Cytokine in d-937 Cells TNFα REC50
Method in brief: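 Sandwich ELISA of culture supernatant gives TNFα and IL-8 levels after a 4 hr challenge with LPS (0.1 μg/mL, E. coli O111:B4). Before stimulation, macrophage-like U937 cells, obtained by 48–72 hr in PMA at 100 ng/mL, sit with compound for 2 hr. Relative EC50 is derived from concentration-response data.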

p38 MAPKα = p38 MAPKα (Homo sapiens (Human), UniProt Q16539); assay: p38 MAPKα enzyme inhibition (FRET, Z-LYTE); assay type: biochemical
cSrc = cSrc (Homo sapiens (Human), UniProt P12931); assay: c-Src enzyme inhibition (FRET, Z-LYTE); assay type: biochemical
Method in brief: (§1)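 Z-LYTE FRET kinase assay: enzyme (3000 or 2000 ng/mL stock, respectively) preincubated 2 h at RT with compound (4–0.004 μg/mL stocks), then FRET peptide plus ATP (800 μM stock for c-Src, 60 μM for Syk) added for 1 h. Protease development 1 h; phosphorylation from coumarin/fluorescein emission ratio.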

Syk = Syk (Homo sapiens (Human), UniProt P43405); assay: Syk enzyme inhibition (FRET, Z-LYTE); assay type: biochemical
Method in brief: as §1

d-U937 cells = assay: Cell viability: MTT assay; assay type: cell-based, human; conditions: 1 μg/mL
Method in brief: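 MTT read-out (1 h, absorbance 550 nm) on d-U937 cells after pre-incubation with 1 or 10 μg/mL compound under two regimes: 4 h, 5% FCS, or 24 h, 10% FCS RPMI1640. Values are percent loss of viability relative to vehicle (0.5% DMSO), so increases are reported as negative.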

[3] = tested on: LPS-induced IL-8 release in d-U937 cells; assay: LPS-induced IL-8 release in d-U937 cells; assay type: cell-based; conditions: Homo sapiens, dU937, read-out: LPS Induced Release of Cytokine in d-937 Cells IL-8 IC50
Method in brief: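 Human monocytic U937 cells were differentiated to macrophage-type cells with PMA (100 ng/mL) for 48 to 72 hr, pre-treated with test compound for 2 hr, then stimulated 4 hr with E. coli O111:B4 LPS (0.1 μg/mL). Supernatant TNFα and IL-8 were measured by sandwich ELISA; REC50 came from concentration-response curves.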

Sequence of cSrc (P12931 whole entry, looked up): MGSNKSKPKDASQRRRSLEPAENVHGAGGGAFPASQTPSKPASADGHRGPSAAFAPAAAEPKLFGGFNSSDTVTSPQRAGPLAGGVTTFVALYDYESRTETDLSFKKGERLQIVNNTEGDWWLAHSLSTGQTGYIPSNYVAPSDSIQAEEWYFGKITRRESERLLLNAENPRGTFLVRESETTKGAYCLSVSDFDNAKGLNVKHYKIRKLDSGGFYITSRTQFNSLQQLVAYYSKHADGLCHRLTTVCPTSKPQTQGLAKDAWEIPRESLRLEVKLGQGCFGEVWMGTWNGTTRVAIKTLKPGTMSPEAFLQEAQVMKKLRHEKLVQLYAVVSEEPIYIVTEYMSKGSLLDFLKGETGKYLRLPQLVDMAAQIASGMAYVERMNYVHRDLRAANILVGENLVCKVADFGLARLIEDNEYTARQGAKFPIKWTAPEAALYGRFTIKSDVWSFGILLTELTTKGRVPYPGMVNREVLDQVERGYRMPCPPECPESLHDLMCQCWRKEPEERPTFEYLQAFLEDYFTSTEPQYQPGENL
Sequence of p38 MAPKα (Q16539 whole entry): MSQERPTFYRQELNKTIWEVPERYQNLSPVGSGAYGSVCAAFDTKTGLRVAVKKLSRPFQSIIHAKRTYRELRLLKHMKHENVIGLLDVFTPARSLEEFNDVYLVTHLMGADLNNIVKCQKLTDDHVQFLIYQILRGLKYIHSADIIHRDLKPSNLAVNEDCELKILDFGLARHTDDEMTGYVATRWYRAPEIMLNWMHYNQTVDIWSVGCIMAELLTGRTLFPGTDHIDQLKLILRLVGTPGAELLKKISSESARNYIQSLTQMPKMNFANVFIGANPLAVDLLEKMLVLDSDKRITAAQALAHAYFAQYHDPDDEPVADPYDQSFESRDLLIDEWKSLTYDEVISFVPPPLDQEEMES
Sequence of GSK3α (P49840 whole entry): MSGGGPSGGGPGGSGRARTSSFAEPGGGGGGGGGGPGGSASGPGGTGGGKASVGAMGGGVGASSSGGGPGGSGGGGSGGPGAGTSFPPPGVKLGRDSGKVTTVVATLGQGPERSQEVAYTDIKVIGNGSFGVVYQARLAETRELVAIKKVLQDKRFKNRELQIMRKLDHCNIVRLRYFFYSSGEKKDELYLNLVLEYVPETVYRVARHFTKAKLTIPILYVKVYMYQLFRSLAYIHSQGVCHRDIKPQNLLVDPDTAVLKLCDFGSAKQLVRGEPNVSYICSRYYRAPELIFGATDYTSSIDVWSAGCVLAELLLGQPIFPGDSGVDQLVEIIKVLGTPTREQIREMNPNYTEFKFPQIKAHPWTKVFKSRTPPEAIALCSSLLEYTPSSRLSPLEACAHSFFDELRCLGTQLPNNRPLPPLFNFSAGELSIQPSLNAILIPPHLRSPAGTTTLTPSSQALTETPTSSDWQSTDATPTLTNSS

Row | SMILES | IC50 [1] [nM] | IC50 (GSK3α) [nM] | EC50 [2] [nM] | IC50 (p38 MAPKα) [nM] | IC50 (cSrc) [nM] | IC50 (Syk) [nM] | MTT Assay Cell viability at time point in d-U937 cells 4 h (d-U937 cells) | MTT Assay Cell viability at time point in d-U937 cells 24 h (d-U937 cells) | IC50 [3] [nM]
1 | CC(C)(C)c1cc(NC(=O)Nc2ccc(Oc3ccnc(Nc4ccc5c(c4)CCC5)n3)c3ccccc23)n(-c2ccc(OCCN3CCOCC3)cc2)n1 [Example 59, 1-(3-(tert-butyl)-1-(4-(2-morpholinoethoxy)phenyl)-1H-pyrazol-5-yl)-3-(4-((2-((2,3-dihydro-1H-inden-5-yl)amino)pyrimidin-4-yl)oxy)naphthalen-1-yl)urea] | 0.1 | > 9230 | 12.6 | 98 | 23 | 28 | −ve (−ve and +ve indicate that the value is below and above respectively, the no significant effect threshold, defined as 30% inhibition at 1 μg/mL at the time point indicated.) | −ve (−ve and +ve indicate that the value is below and above respectively, the no significant effect threshold, defined as 30% inhibition at 1 μg/mL at the time point indicated.) | 16.8
2 | CC(C)c1cc(NC(=O)Nc2ccc(Oc3ccnc(Nc4ccc5[nH]ncc5c4)n3)c3ccccc23)n(-c2cccc(OCCN3CCOCC3)c2)n1 [Example 53, 1-(4-((2-((1H-indazol-5-yl)amino)pyrimidin-4-yl)oxy)naphthalen-1-yl)-3-(3-isopropyl-1-(3-(2-morpholinoethoxy)phenyl)-1H-pyrazol-5-yl)urea] | 38.5 | 11300 | 49.1 | 8 | 4 | 3 | −ve (−ve and +ve indicate that the value is below and above respectively, the no significant effect threshold, defined as 30% inhibition at 1 μg/mL at the time point indicated.) | −ve (−ve and +ve indicate that the value is below and above respectively, the no significant effect threshold, defined as 30% inhibition at 1 μg/mL at the time point indicated.) | 173
3 | COc1ccc(-n2nc(C(C)(C)C)cc2NC(=O)Nc2ccc(Oc3ccnc(Nc4ccc5c(cnn5CCN5CCOCC5)c4)n3)c3ccccc23)cc1 [Example 43, 1-(3-(tert-butyl)-1-(4-methoxyphenyl)-1H-pyrazol-5-yl)-3-(4-((2-((1-(2-morpholinoethyl)-1H-indazol-5-yl)amino)pyrimidin-4-yl)oxy)naphthalen-1-yl)urea] | 2.4 | 485 | 1.3 | 15 | 2 | 21 | −ve (−ve and +ve indicate that the value is below and above respectively, the no significant effect threshold, defined as 30% inhibition at 1 μg/mL at the time point indicated.) | −ve (−ve and +ve indicate that the value is below and above respectively, the no significant effect threshold, defined as 30% inhibition at 1 μg/mL at the time point indicated.) | 1.8
4 | CC(C)(C)c1cc(NC(=O)Nc2ccc(Oc3ccnc(Nc4ccc5c(c4)OCO5)n3)c3ccccc23)n(-c2ccc(OCCN3CCOCC3)cc2)n1 [Example 65, 1-(4-((2-(benzo[d][1,3]dioxol-5-ylamino)pyrimidin-4-yl)oxy)naphthalen-1-yl)-3-(3-(tert-butyl)-1-(4-(2-morpholinoethoxy)phenyl)-1H-pyrazol-5-yl)urea] | 6.7 | 2840 | 5.3 | 239 | 23 | 141 | −ve (−ve and +ve indicate that the value is below and above respectively, the no significant effect threshold, defined as 30% inhibition at 1 μg/mL at the time point indicated.) | −ve (−ve and +ve indicate that the value is below and above respectively, the no significant effect threshold, defined as 30% inhibition at 1 μg/mL at the time point indicated.) | 20.9
5 | CC(C)(C)c1cc(NC(=O)Nc2ccc(Oc3ccnc(Nc4ccc5[nH]ncc5c4)n3)c3ccccc23)n(-c2ccc(O)cc2)n1 [Example 7, 1-(4-((2-((1H-Indazol-5-yl)amino)pyrimidin-4-yl)oxy)naphthalen-1-yl)-3-(3-(tert-butyl)-1-(4-hydroxyphenyl)-1H-pyrazol-5-yl)urea] | 16.1 | > 1600 | 6.2 | 80 | 10 | 24 | −ve (−ve and +ve indicate that the value is below and above respectively, the no significant effect threshold, defined as 30% inhibition at 1 μg/mL at the time point indicated.) | −ve (−ve and +ve indicate that the value is below and above respectively, the no significant effect threshold, defined as 30% inhibition at 1 μg/mL at the time point indicated.) | 17.2
6 | CC(C)(C)c1cc(NC(=O)Nc2ccc(Oc3ccnc(Nc4ccc5oc(=O)[nH]c5c4)n3)c3ccccc23)n(-c2ccc(OCCN3CCOCC3)cc2)n1 [Example 76, 1-(3-(tert-butyl)-1-(4-(2-morpholinoethoxy)phenyl)-1H-pyrazol-5-yl)-3-(4-((2-((2-oxo-2,3-dihydrobenzo[d]oxazol-5-yl)amino)pyrimidin-4-yl)oxy)naphthalen-1-yl)urea] | 2.2 | 777 | 12.5 | 48 | 15 | 34 | −ve (−ve and +ve indicate that the value is below and above respectively, the no significant effect threshold, defined as 30% inhibition at 1 μg/mL at the time point indicated.) | −ve (−ve and +ve indicate that the value is below and above respectively, the no significant effect threshold, defined as 30% inhibition at 1 μg/mL at the time point indicated.) | 0.3
7 | CC(C)(C)c1cc(NC(=O)Nc2ccc(Oc3ccnc(Nc4ccc5c(cnn5CCN5CCOCC5)c4)n3)c3ccccc23)n(-c2ccc(OCCN3CCOCC3)cc2)n1 [Example 74, 1-(3-(tert-butyl)-1-(4-(2-morpholinoethoxy)phenyl)-1H-pyrazol-5-yl)-3-(4-((2-((1-(2-morpholinoethyl)-1H-indazol-5-yl)amino)pyrimidin-4-yl)oxy)naphthalen-1-yl)urea] | 2.7 | 597 | 3.6 | 27 | < 1 | 1 | −ve (−ve and +ve indicate that the value is below and above respectively, the no significant effect threshold, defined as 30% inhibition at 1 μg/mL at the time point indicated.) | −ve (−ve and +ve indicate that the value is below and above respectively, the no significant effect threshold, defined as 30% inhibition at 1 μg/mL at the time point indicated.) | 192
8 | CC(C)c1cc(NC(=O)Nc2ccc(Oc3ccnc(Nc4ccc5[nH]ncc5c4)n3)c3ccccc23)n(-c2ccc(OCCN3CCOCC3)cc2)n1 [Example 69, 1-(4-((2-((1H-indazol-5-yl)amino)pyrimidin-4-yl)oxy)naphthalen-1-yl)-3-(3-isopropyl-1-(4-(2-morpholinoethoxy)phenyl)-1H-pyrazol-5-yl)urea] | 8.1 | 1280 | 0.4 | 18 | 3 | 5 | −ve (−ve and +ve indicate that the value is below and above respectively, the no significant effect threshold, defined as 30% inhibition at 1 μg/mL at the time point indicated.) | −ve (−ve and +ve indicate that the value is below and above respectively, the no significant effect threshold, defined as 30% inhibition at 1 μg/mL at the time point indicated.) | 3.4
